According to patent US5880156A, “Substituted benzoylguanidines, process for their preparation, their use as a medicament or diagnostic and medicament containing them” (priority 1993, dated 1999):
pIC50: −log10 of the molar value. Where a name gives a salt, the structure may show the parent alone.

Key:
[1] = target: T1, Na^+ /H^+ exchanger from rabbit erythrocytes (Oryctolagus cuniculus, UniProt P23791); assay: Inhibition of the Na^+ /H^+ exchanger from rabbit erythrocytes (Na^+ influx by flame photometry); assay type: cell-based, rabbit (White New Zealand); settings: pH 7.4, 37° C., cholesterol-fed rabbits
T1 construct: determine the Na^+ influx into the erythrocytes via Na^+ /H^+ exchange by flame photometry; endogenous in cells; host or cells: intact erythrocytes (whole blood samples) of cholesterol-fed White New Zealand rabbits
T1 sequence (P23791 whole entry): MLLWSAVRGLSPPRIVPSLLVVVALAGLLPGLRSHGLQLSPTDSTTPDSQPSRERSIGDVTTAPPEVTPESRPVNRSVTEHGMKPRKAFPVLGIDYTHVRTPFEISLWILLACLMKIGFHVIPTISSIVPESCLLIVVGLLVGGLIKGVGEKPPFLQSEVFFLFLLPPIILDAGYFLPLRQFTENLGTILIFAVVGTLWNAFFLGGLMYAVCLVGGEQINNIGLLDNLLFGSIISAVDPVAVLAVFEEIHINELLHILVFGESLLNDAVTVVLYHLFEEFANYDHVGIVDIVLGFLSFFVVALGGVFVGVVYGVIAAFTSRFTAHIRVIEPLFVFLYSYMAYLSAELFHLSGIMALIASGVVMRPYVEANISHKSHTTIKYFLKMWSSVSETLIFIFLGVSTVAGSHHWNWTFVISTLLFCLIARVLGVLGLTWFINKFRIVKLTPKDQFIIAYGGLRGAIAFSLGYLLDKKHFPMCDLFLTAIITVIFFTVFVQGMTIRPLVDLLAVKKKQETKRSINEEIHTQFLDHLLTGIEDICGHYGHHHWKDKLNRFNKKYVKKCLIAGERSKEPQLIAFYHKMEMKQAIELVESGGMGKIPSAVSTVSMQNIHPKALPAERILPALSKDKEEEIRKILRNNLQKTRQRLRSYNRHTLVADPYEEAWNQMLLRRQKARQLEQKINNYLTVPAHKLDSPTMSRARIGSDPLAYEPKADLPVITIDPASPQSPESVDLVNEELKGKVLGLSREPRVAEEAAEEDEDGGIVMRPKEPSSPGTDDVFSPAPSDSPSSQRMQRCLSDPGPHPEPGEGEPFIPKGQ
Experimental: White New Zealand rabbits (Ivanovas) received a standard diet containing 2% cholesterol for six weeks in order to activate Na^+ /H^+ exchange and thus to be able to determine the Na^+ influx into the erythrocytes via Na^+ /H^+ exchange by flame photometry. The blood was taken from the auricular arteries and rendered uncoagulable by means of 25 IU of potassium heparin. A part of each sample was used for the duplicate determination of the hematocrit by centrifugation. Aliquots of 100 μl in each case were used to measure the Na^+ starting content of the erythrocytes.
In order to determine the amiloride-sensitive sodium influx, 100 μl of each blood sample were incubated at pH 7.4 and 37° C. in 5 ml in each case of a hyperosmolar salt-sucrose medium (mmol/l: 140 NaCl, 3 KCl, 150 sucrose, 0.1 ouabain, 20 trishydroxymethylaminomethane). The erythrocytes were then washed three times with ice-cold MgCl2 --ouabain solution (mmol/l: […] MgCl2, 0.1 ouabain) and hemolyzed in 2.0 ml of distilled water. The intracellular sodium content was determined by flame photometry.
The net Na^+ influx was calculated from the difference between sodium starting values and the sodium content of the erythrocytes after incubation. The amilorideinhibitable sodium influx ensued from the difference in the sodium content of the erythrocytes after incubation with and without amiloride 3×10^-4 mol/l. The sodium influx was also determined in this manner in the case of the compounds according to the invention.

cardiac arrhythmias = settings: in vivo; cited from earlier work

| pIC50 [1] | Compound | side effects accompanying antiarrhythmic effect (cardiac arrhythmias) |
| --- | --- | --- |
| 6.40 | CC(=O)c1ccc(Oc2ccc(C(=O)N=C(N)N)cc2S(C)(=O)=O)cc1 [Example 1, 4-(4-Acetylphenoxy)-3-methylsulfonylbenzoylguanidine] | – |
| 6.40 | CC(O)c1ccc(Oc2ccc(C(=O)N=C(N)N)cc2S(C)(=O)=O)cc1 (racemic) [Example 2, hydrochloride] | – |
| 6.30 to 6.52 | C[C@@H](O)[C@H](O)c1ccc(Oc2ccc(C(=O)N=C(N)N)cc2S(C)(=O)=O)cc1 [Example 3, 4-[4-(1(R),2(R) -Dihydroxyprop-1-yl)phenoxy]-3-methylsulfonylbenzoylguanidine] | – |
| – | N=C(N)NC(=O)c1nc(Cl)c(N)nc1N [amiloride, Amiloride] | hypotensive and saluretic action |
| 6.30 to 7.00 | C[C@H](O)[C@@H](O)c1ccc(Oc2ccc(C(=O)N=C(N)N)cc2S(C)(=O)=O)cc1 [Example 4, 4-[4-(1(S),2(S)-Dihydroxyprop-1-yl)phenoxy]-3-methylsulfonylbenzoylguanidin] | – |
